In patent publication US5652238A, “Esters of substituted-hydroxyacetyl piperazine phenyl oxazolidinones” (Pharmacia & Upjohn Company, priority 1996, dated 1997):
≈ marks a conversion by molar mass, not a printed value. Structures can show the parent of a compound that is named as a salt.

Tests used:
[1] = tested on: Staphylococcus aureus UC9213 or Streptococcus species; test: Antimicrobial activity in vivo, Murine Assay (mice infected intraperitoneally with bacteria; ED50 from survival over six days); details: 144 h, female mice, treatment one hour and five hours after infection
Description: Antimicrobial activity was tested in vivo using the Murine Assay procedure. Groups of female mice (six mice of 18-20 grams each) were injected intraperitoneally with bacteria which were thawed just prior to use and suspended in brain heart infusion with 4% brewers yeast UC9213 (Staphylococcus aureus) or brain heart infusion (Streptococcus species). Antibiotic treatment at six dose levels per drug was administered one hour and five hours after infection by either oral intubation or subcutaneous ("subcut.") routes. Survival was observed daily for six days. ED50 values based on mortality ratios were calculated using probit analysis. The subject compounds were compared against a well-known antimicobial (Vancomycin) as a control.

[2] = Aqueous solubility (pH 7, phosphate buffer); assay type: physicochemical

| solubility [2] | Structure (SMILES) | ED50 ([1]; oral) | ED50 ([1]; sc, subcut.) |
| --- | --- | --- | --- |
| 36000 µg/mL (≈ 67200 µM) | CC(=O)NC[C@H]1CN(c2ccc(N3CCN(C(=O)COC(=O)CCN4CCOCC4)CC3)c(F)c2)C(=O)O1 [Example 1, 3-(4-Morpholinyl)propionic acid, 2-(4-(4-(5-((acetylamino)methyl)-2-oxo-3-oxazolidinyl)-2-fluorophenyl)-1-piperazinyl)-2-oxoethyl ester, (S)] | 5 mg/kg | 4 mg/kg |
| 300 µg/mL (≈ 601 µM) | CC(=O)NC[C@H]1CN(c2ccc(N3CCN(C(=O)COC(=O)c4cccnc4)CC3)c(F)c2)C(=O)O1 [Example 2, Nicotinic acid, 2-[4-[4-[5-[(acetylamino)methyl]-2-oxo-3-oxazolidinyl]-2-fluorophenyl]-1-piperazinyl]-2-oxoethyl ester, (S)-] | 9 mg/kg | 15 mg/kg |
| 12300 µg/mL (≈ 24000 µM) | CC(=O)NC[C@H]1CN(c2cc(F)c(N3CCN(C(=O)COC(=O)CCC(=O)O)CC3)c(F)c2)C(=O)O1 [Example 15, Succinic acid, 2-(4-(4-(5-((acetylamino)methyl)-2-oxo-3-oxazolidinyl)-2,6-difluorophenyl)-1-piperazinyl)-2-oxoethyl monoester, (S)] |  |  |
| 2290 µg/mL (≈ 4650 µM) | CC(=O)CCC(=O)OCC(=O)N1CCN(c2ccc(N3C[C@H](CNC(C)=O)OC3=O)cc2F)CC1 [Example 19, 4-Oxo-valeric acid, 2-(4-(4-(5-((acetylamino)methyl)-2-oxo-3-oxazolidinyl)-2-fluorophenyl)-1-piperazinyl)-2-oxoethyl monoester, (S)] |  |  |
| 90 µg/mL (≈ 150 µM) | CC(=O)NC[C@H]1CN(c2ccc(N3CCN(C(=O)COC(=O)c4ccc(NC(=O)CN(C)C)cc4)CC3)c(F)c2)C(=O)O1 [Example 28, 4-N-(N,N-dimethylglycinyl)aminobenzoic acid, 2-[4-[4-[5-[(acetylamino)methyl]-2-oxo-3-oxazolidinyl]-2-fluorophenyl]-1-piperazinyl]-2-oxoethyl ester, (S)-] |  |  |

The remaining lines, values behind:

| Structure (SMILES) | solubility [2] | ED50 ([1]; oral) | ED50 ([1]; sc, subcut.) |
| --- | --- | --- | --- |
| CC(=O)NC[C@H]1CN(c2cc(F)c(N3CCN(C(=O)COC(=O)c4ccc(N(C)C)cc4)CC3)c(F)c2)C(=O)O1 [Example 8, 4-dimethylaminobenzoic acid, 2-[4-[4-[5-[(acetylamino)methyl]-2-oxo-3-oxazolidinyl]-2,6-difluorophenyl]-1-piperazinyl]-2-oxoethyl ester, (S)-] | 10 µg/mL (≈ 17.9 µM) | 10 mg/kg | 6 mg/kg |
| CC(=O)NC[C@H]1CN(c2cc(F)c(N3CCN(C(=O)COC(=O)CO)CC3)c(F)c2)C(=O)O1 [Example 24, Hydroxyacetic acid, 2-[4-[4-[5-[(acetylamino)methyl]-2-oxo-3-oxazolidinyl]-2,6-difluorophenyl]-1-piperazinyl]-2-oxoethyl ester,] |  | 1 mg/kg |  |
| CC(=O)NC[C@H]1CN(c2cc(F)c(N3CCN(C(=O)COC(=O)n4ccnc4)CC3)c(F)c2)C(=O)O1 [Example 5, 1H-imidazole-1-carboxylic acid, 2-[4-[4-[5-[(acetylamino)methyl]-2-oxo-3-oxazolidinyl]-2,6-difluorophenyl]-1-piperazinyl]-2-oxoethyl ester, (S)-] |  | 7 mg/kg | 5 mg/kg |
| CC(=O)NC[C@H]1CN(c2cc(F)c(N3CCN(C(=O)COC(=O)CCC(=O)O)CC3)c(F)c2)C(=O)O1 [Example 16, Succinic acid, 2-(4-(4-(5-((acetylamino)methyl)-2-oxo-3-oxazolidinyl)-2,6-difluorophenyl)-1-piperazinyl)-2-oxoethyl monoester, sodium salt, (S)] |  | 4 mg/kg |  |
| CC(=O)NC[C@H]1CN(c2ccc(N3CCN(C(=O)COC(=O)CCN(C)C)CC3)c(F)c2)C(=O)O1 [Example 11, 3-(Dimethylamino)propanoic acid, 2-[4-[4-[5-[(acetylamino)methyl]-2-oxo-3-oxazolidinyl]-2-fluorophenyl]-1-piperazinyl]-2-oxoethyl ester, (S)-] |  | 8 mg/kg | 8 mg/kg |
